Consider one molecule from patent US10059655B2, “Lipids and lipid compositions for the delivery of active agents” (priority 2013, dated 2018).

Structures are written as SMILES.

This test relates to mEPO. The test is described as follows: Mouse EPO ELISA after IV injection of encapsulated mEPO mRNA. In kind it is in vivo. The settings on record: 0.2 mpk, ob/ob mice, @ 24 h. As to the method: A rat anti-mouse Erythropoietin antibody is coated on 384-well white microtiter plates overnight, then blocked for assay. Then, plasma samples are diluted in a casein-based sample diluent and incubated on the plate with buffer controls and mouse EPO standards. The plate is then washed to remove unbound material. A biotinylated rat anti-mouse Erythropoietin antibody is then added to the plate to detect mouse EPO bound by the capture antibody. The plate is washed again and a streptavidin-conjugated horseradish peroxidase reagent is incubated on the plate. A third wash step is performed and a chemiluminescent reagent is added to the plate and immediately read by a capable plate reader using all wavelengths and a 50 millisecond integration time. Unknown samples are interpolated off the mouse EPO standard curve.
(ELISA stands for enzyme-linked immunosorbent assay.)

Consider `CCCCC/C=C\C/C=C\CCCCCCCC(=O)OCC(COC(=O)CCCCCCC/C=C\C/C=C\CCCCC)COC(=O)C1(C)CCN(C)C1` (stereo not shown) [Example 1, (9Z,9′Z,12Z,12′Z)-2-(((1,3-dimethylpyrrolidine-3-carbonyl)oxy)methyl)propane-1,3-diyl bis(octadeca-9,12-dienoate)], for which the “Expression of protein following IV injection of encapsulated mRNA: mEPO” value amounted to 22.5 ng/mL.
